Results taken from patent US10590413B2, “Chiral control” (WAVE LIFE SCIENCES LTD., priority 2012, dated 2020).
Read-outs that look alike come from different tables or passages of the source. Strand notation (5' to 3'): a small letter for the sugar, then the base; units joined by * are phosphorothioate-linked, units joined directly phosphodiester-linked; [ ] holds rarer units or linkages, { } end groups; capitals alone tell only the bases. [Rp] = phosphorothioate linkage, Rp; [Sp] = phosphorothioate linkage, Sp; e = 2'-O-(2-methoxyethyl) (MOE); [5mC] = 5-methylcytosine; d = 2'-deoxy (DNA)

Columns and labels:
complementary RNA = assay: Thermal denaturation experiment (Tm) of DNA strand with complementary RNA (Example 49); assay type: binding; conditions: duplex with complementary RNA, equimolar 0.5 μM in 1×PBS; first derivative of 254 nm absorbance curve
Procedure: Each DNA strand was mixed with complementary RNA in equimolar concentration of 0.5 μM in 1×PBS. Total 2.5 mL solution was prepared for each duplex and the mixture was heated at 90° C. for 2 min and was allowed to cool down over the course of several hours. The mixtures were then stored at 4° C. for 2 hrs. Absorbance at 254 nm was recorded at an interval of 0.5 min starting the temperature gradient from 15° C. to 90° C. with rise of 0.5° C./minute, using a Perkin Elmer UV-spectrophotometer equipped with a Peltier unit. The 254 nm absorbance was plotted against the temperature and the Tm values were calculated from the respective first derivative of each curve.

[1] = test system: Apolipoprotein B (Apo B) (NM_000384); assay: Apo B gene expression in Hep3B cells after Lipofectamine 2000 transfection, real-time PCR SYBR green (Example 50); assay type: cell-based, Homo Sapiens; conditions: for activity compared to Mipomersen (120) / potency compared to the corresponding stereorandom oligonucleotide mixture (Oligonucleotide 118): from Table E-19 IC50, Hep3B
Procedure: After checking OD all oligonucleotide candidate molecules were diluted to a starting concentration of 20 μM. Multidose forward transfection experiment was setup in 96-well plates using Hep3B cells (ATCC®, Cat. HB-8064™) using Lipofectamine 2000 (Life Technologies, Cat. 11668-019) transfection reagent.
2×10^4 Hep3B cells per well were seeded and incubated for 24 hours at 37° C. in a CO2 incubator in 100 μl of antibiotic free MEM medium (Life Technologies, Cat. 11095098) containing 10% FBS and 1% Glutamax I (Life Technologies, Cat. 35050061). Twelve dilutions were setup in nuclease free water (Table E-16).
For each well, 0.5 μL of Lipofectamine 2000 were mixed with 9.5 μL of Opti MEM I reduced serum medium (Life Technologies, Cat. 31985062) and incubated for 5 minutes. Following incubation, 10 μL of each of the candidates at the reported concentrations was mixed with the diluted Lipofectamine 2000 by gentle pipetting. The mixture was then incubated for 20 minutes at room temperature to allow for complex formation. During this time the cell growth medium was replaced with 80 μL of fresh antibiotic free MEM as previously described. 20 μL of lipid-oligo complex was gently mixed into each well bringing the total volume to 100 μL. The cells were then incubated for 24 hours at 37° C. in a CO2 incubator.
After 24 hour incubation the cell growth medium was removed and RNA was extracted using a Dynabeads mRNA Direct kit (Life Technologies, Cat. 61012) per the instructions provided in the kit manual without modifications. This magnetic Oligo (dT)^25 bead system allows for cost-effective and robust high-throughput poly (A) RNA extraction circumventing DNAse treatment. RNA was eluted in nuclease-free water and stored at −80° C.
10 μL of RNA was used in a 20 μL cDNA synthesis reaction using a High Capacity cDNA Reverse Transcription Kit (Life Technologies, Cat. 4374967) using the kit protocol with RNAse Inhibitor. The reverse transcription was performed in a 96-well format on a C1000 Touch thermal cycler (Biorad, Cat. 185-1196EDU).
Gene expression was measured by quantitative PCR using a LightCycler® 480 SYBR Green I Master (Roche, Cat. 04707516001) on LightCycler 480 Real-Time PCR instrument. Primers for the Homo Sapiens sequences of the target Apolipoprotein B (Apo B) (NM_000384) and endogenous control Glyceralydhyde-3-phosphate dehydrogenase (GAPDH) (NM_002046) were designed and ordered from IDT (Table E-17).
Measurement of the target and endogenous control was performed in separate wells using material from the same cDNA template. SYBR green assay PCR conditions were setup as described in the SYBR Green I Master protocol (Table E-18).
The data is a result of 3 biological replicates. All samples were compared to Naïve untransfected control. The following results were observed when evaluating gene expression by real-time PCR using SYBR green (Table E-19, FIG. 5).

Mouse B Cells = conditions: mean and std. dev. of at least 3 experiments, compared to wells with no added ODN, cited from earlier work
[2] = Apo B mRNA, Hep3B cells, 24 hours after transfection, read-out: IC50 (nM) (rounded up to single digit)
[3] = Complete IC50 data evaluated by SYBR green, Apo B mRNA, Hep3B cells, 24 hours, 3 biological replicates, read-out: IC50

## 119 (DNA GCCTCAGTCTGCTTCGCACC; unmodified DNA) [Oligonucleotide 119]
Complementary RNA
  Tm (° C.) ± 0.5: 73.4 °C
[1]; Apo B mRNA, Hep3B cells, 24 hours after transfection
  IC50 (nM) (rounded up to single digit): Not detected

## (Rp, Rp, Rp, Rp, Rp, Sp, Sp, Sp, Sp, Sp, Sp, Sp, Sp, Sp, Rp, Rp, Rp, Rp, Rp)-d[GsCsCsTsCsAsGsTsCsTsGsCsTsTsCsGsCsAsCsC] (DNA GCCTCAGTCTGCTTCGCACC; DNA, linkages [Rp]5 [Sp]9 [Rp]5 (s phosphorothioate, o phosphodiester), methylation of C not given here) [Oligonucleotide 103]
Complementary RNA
  Tm (° C.) ± 0.5: 63.4 °C
[1]; [2]
  IC50: 6 nM
[1]; [3]
  IC50: 5.73 nM
Mouse B Cells; US 6,239,116 Table 1
  Stimulation Index, 3H Uridine: 6.1 ± 1.4
  Stimulation Index, IgM Production: 19.2 ± 5.2
Mouse B Cells
  Stimulation Index, 3H Uridine: 6.1 ± 1.4

## (Rp, Rp, Rp, Sp, Sp, Sp, Sp, Sp, Sp, Sp, Sp, Sp, Sp, Sp, Sp, Sp, Rp, Rp, Rp)-d[GsCsCsTsCsAsGsTsCsTsGsCsTsTsCsGsCsAsCsC] (DNA GCCTCAGTCTGCTTCGCACC; DNA, linkages [Rp]3 [Sp]13 [Rp]3 (s phosphorothioate, o phosphodiester), methylation of C not given here) [Oligonucleotide 110]
Complementary RNA
  Tm (° C.) ± 0.5: 62.9 °C
[1]; [2]
  IC50: 7 nM
[1]; [3]
  IC50: 7.44 nM

## (Rp, Rp, Sp, Rp, Rp, Sp, Rp, Rp, Sp, Rp, Rp, Sp, Rp, Rp, Sp, Rp, Rp, Sp, Rp)-d[GsCsCsTsCsAsGsTsCsTsGsCsTsTsCsGsCsAsCsC] (DNA GCCTCAGTCTGCTTCGCACC; DNA, linkages [Rp][Rp][Sp][Rp][Rp][Sp][Rp][Rp][Sp][Rp][Rp][Sp][Rp][Rp][Sp][Rp][Rp][Sp][Rp] (s phosphorothioate, o phosphodiester), methylation of C not given here) [Oligonucleotide 114]
Complementary RNA
  Tm (° C.) ± 0.5: 65.2 °C
[1]; [2]
  IC50: 5 nM
[1]; [3]
  IC50: 5.23 nM

## (Rp, Sp, Rp, Rp, Sp, Rp, Rp, Sp, Rp, Rp, Sp, Rp, Rp, Sp, Rp, Rp, Sp, Rp, Rp)d[GsCsCsTsCsAsGsTsCsTsGsCsTsTsCsGsCsAsCsC] (DNA dG[Rp]dC[Sp]dC[Rp]dT[Rp]dC[Sp]dA[Rp]dG[Rp]dT[Sp]dC[Rp]dT[Rp]dG[Sp]dC[Rp]dT[Rp]dT[Sp]dC[Rp]dG[Rp]dC[Sp]dA[Rp]dC[Rp]dC) [Oligonucleotide 116]
Complementary RNA
  Tm (° C.) ± 0.5: 64.8 °C
[1]; [2]
  IC50: 2 nM
[1]; [3]
  IC50: 1.92 nM
[1]
  activity compared to Mipomersen (120): more active
  potency compared to the corresponding stereorandom oligonucleotide mixture (Oligonucleotide 118): more potent

## (Rp, Sp, Rp, Sp, Rp, Sp, Rp, Sp, Rp, Sp, Rp, Sp, Rp, Sp, Rp, Sp, Rp, Sp, Rp)-d[GsCsCsTsCsAsGsTsCsTsGsCsTsTsCsGsCsAsCsC] (DNA GCCTCAGTCTGCTTCGCACC; DNA, linkages [Rp][Sp][Rp][Sp][Rp][Sp][Rp][Sp][Rp][Sp][Rp][Sp][Rp][Sp][Rp][Sp][Rp][Sp][Rp] (s phosphorothioate, o phosphodiester), methylation of C not given here) [Oligonucleotide 107]
Complementary RNA
  Tm (° C.) ± 0.5: 64.5 °C
[1]; [2]
  IC50: 4 nM
[1]; [3]
  IC50: ~4.18 nM
[1]
  activity compared to Mipomersen (120): more active

## (Rp, Sp, Sp, Sp, Sp, Sp, Sp, Sp, Sp, Sp, Sp, Sp, Sp, Sp, Sp, Sp, Sp, Sp, Rp)-d[GsCsCsTsCsAsGsTsCsTsGsCsTsTsCsGsCsAsCsC] (DNA GCCTCAGTCTGCTTCGCACC; DNA, linkages [Rp]1 [Sp]17 [Rp]1 (s phosphorothioate, o phosphodiester), methylation of C not given here) [Oligonucleotide 106]
Complementary RNA
  Tm (° C.) ± 0.5: 61.8 °C
[1]; [2]
  IC50: 4 nM
[1]; [3]
  IC50: ~3.85 nM
[1]
  activity compared to Mipomersen (120): more active

## (Sp, Rp, Rp, Rp, Rp, Rp, Rp, Rp, Rp, Rp, Rp, Rp, Rp, Rp, Rp, Rp, Rp, Rp, Sp)-d[GsCsCsTsCsAsGsTsCsTsGsCsTsTsCsGsCsAsCsC] (DNA GCCTCAGTCTGCTTCGCACC; DNA, linkages [Sp]1 [Rp]17 [Sp]1 (s phosphorothioate, o phosphodiester), methylation of C not given here) [Oligonucleotide 105]
Complementary RNA
  Tm (° C.) ± 0.5: 66.5 °C
[1]; [2]
  IC50: 3 nM
[1]; [3]
  IC50: 2.88 nM
[1]
  activity compared to Mipomersen (120): more active
  potency compared to the corresponding stereorandom oligonucleotide mixture (Oligonucleotide 118): more potent

## (Sp, Rp, Rp, Sp, Rp, Rp, Sp, Rp, Rp, Sp, Rp, Rp, Sp, Rp, Rp, Sp, Rp, Rp, Sp)-d[GsCsCsTsCsAsGsTsCsTsGsCsTsTsCsGsCsAsCsC] (DNA GCCTCAGTCTGCTTCGCACC; DNA, linkages [Sp][Rp][Rp][Sp][Rp][Rp][Sp][Rp][Rp][Sp][Rp][Rp][Sp][Rp][Rp][Sp][Rp][Rp][Sp] (s phosphorothioate, o phosphodiester), methylation of C not given here) [Oligonucleotide 115]
Complementary RNA
  Tm (° C.) ± 0.5: 65.2 °C
[1]; [2]
  IC50: 3 nM
[1]; [3]
  IC50: 2.69 nM
[1]
  activity compared to Mipomersen (120): more active
  potency compared to the corresponding stereorandom oligonucleotide mixture (Oligonucleotide 118): more potent

## (Sp, Rp, Sp, Rp, Sp, Rp, Sp, Rp, Sp, Rp, Sp, Rp, Sp, Rp, Sp, Rp, Sp, Rp, Sp)-d[GsCsCsTsCsAsGsTsCsTsGsCsTsTsCsGsCsAsCsC] (DNA GCCTCAGTCTGCTTCGCACC; DNA, linkages [Sp][Rp][Sp][Rp][Sp][Rp][Sp][Rp][Sp][Rp][Sp][Rp][Sp][Rp][Sp][Rp][Sp][Rp][Sp] (s phosphorothioate, o phosphodiester), methylation of C not given here) [Oligonucleotide 108]
Complementary RNA
  Tm (° C.) ± 0.5: 64.8 °C
[1]; [2]
  IC50: 3 nM
[1]; [3]
  IC50: 3.19 nM

## (Sp, Sp, Sp, Rp, Rp, Rp, Rp, Rp, Rp, Rp, Rp, Rp, Rp, Rp, Rp, Rp, Sp, S, Sp)d[GsCsCsTsCsAsGsTsCsTsGsCsTsTsCsGsCsAsCsC] (DNA GCCTCAGTCTGCTTCGCACC; DNA, linkages [Sp]3 [Rp]13 [Sp]3 (s phosphorothioate, o phosphodiester), methylation of C not given here) [Oligonucleotide 109]
Complementary RNA
  Tm (° C.) ± 0.5: 65.8 °C
[1]; [2]
  IC50: 2 nM
[1]; [3]
  IC50: 1.72 nM
[1]
  activity compared to Mipomersen (120): more active
  potency compared to the corresponding stereorandom oligonucleotide mixture (Oligonucleotide 118): more potent

## (Sp, Sp, Sp, Sp, Sp, Rp, Rp, Rp, Rp, Rp, Rp, Rp, Rp, Rp, Sp, Sp, Sp, Sp, Sp)-d[GsCsCsTsCsAsGsTsCsTsGsCsTsTsCsGsCsAsCsC] (DNA GCCTCAGTCTGCTTCGCACC; DNA, linkages [Sp]5 [Rp]9 [Sp]5 (s phosphorothioate, o phosphodiester), methylation of C not given here) [Oligonucleotide 104]
Complementary RNA
  Tm (° C.) ± 0.5: 63.5 °C
[1]; [2]
  IC50: 4 nM
[1]; [3]
  IC50: 4.29 nM
[1]
  activity compared to Mipomersen (120): more active

## Mipomersen (DNA eG*e[5mC]*e[5mC]*eT*e[5mC]*dA*dG*dT*d[5mC]*dT*dG*d[5mC]*dT*dT*d[5mC]*eG*e[5mC]*eA*e[5mC]*e[5mC]) [Oligonucleotide 120, "Mipomersen, which is a stereorandom oligonucleotide mixture (Oligonucleotides 104, 105 ... compared to 120)", reference compound]
Complementary RNA
  Tm (° C.) ± 0.5: 65.3 °C
[1]; [2]
  IC50: 4 nM
[1]; [3]
  IC50: 4.39 nM
